“Also recorded” adds a separate entry of the source.
Test system: AsPC-1 cells xenografted in nude mice
Assay: Tumorigenicity assay: AsPC-1 cells xenografted in nude mice
Assay type: in vivo
Details: for decrease of tumor volume: 30-day treatment; for activated caspase-3 immunostaining in xenografted AsPC-1 tumors: orexin-A 1 μmoles/Kg daily i.p., 30 days
Method: FIGS. 6A and B. Effect of daily inoculation of orexin-A on the growth of tumors developed by xenografting human PDCA cells in nude mice. AsPC-1 cells were inoculated in the flank of nude mice at day 0. Mice were injected daily intraperitoneally with 100 μl of orexin-A solutions starting at day 0 (◯) or day 14 (▴) or with 100 μl of PBS ([…]) for controls. A, the daily treatment corresponded to 1 μmoles of orexin-A/Kg. Inset represents the tumor weight measured at the end of the experiment after the mice were sacrificed; B, mice received 0.01, 0.1, 1 or 10 μmoles of orexin-A/kg. After 30 days of treatment, mice were sacrificed and tumor volume and weight were then recorded. The development of tumors was followed by caliper measurement. Data are the means±SE of 6 tumors in each group. *** p<0.01 versus control.
FIG. 7A-F. Indirect immunostaining of activated caspase-3 in xenografted AsPC-1 tumors resected from nude mice. Paraformaldehyde-fixed xenografted AsPC-1 tumors from nude mice treated daily (B, D and F) by intraperitoneal injections with 1 μmoles/Kg orexin-A or not (A, C and E). […] OX1R immunostaining localisation was similar under control and orexin-A treatment conditions.
Control mice received PBS.
After dewaxing, rehydrating tumor paraffin sections, and antigen retrieval by pretreatment with high temperature at pH 9, immunohistochemical procedures were carried out using an automated immunohistochemical stainer according to the manufacturer's guidelines (Bond-Max slide stainer, Menarini, Leica Microsystems). For immunohistochemistry on cell lines, cells in pellets were fixed in formalin, embedded in cell blocks (Shandon Cytoblock; Thermo Scientific; USA) and cut into 3 μm sections. OX1R evaluation was performed in human PDAC, included in TMA, in xenografted tumors and in cell lines (AsPC-1, HPAF-II and HPAF-II/hOX1R). After antigen retrieval, 3 μm cells or tissue sections were incubated for 30 minutes with a polyclonal anti-OX1R antibody (My Bio Source; polyclonal goat; 1/300), rinsed, and then incubated with a biotinylated secondary rabbit anti-goat antibody (Vector BA-500; 1/400). Sections were rinsed and incubated with Streptavidin (TrekAvidin-HRP; Biocare Medical) and DAB ultraview detection kit (Bond Polymer Refine detection; DS9800; Leica Microsystems). Substitution of the primary antibody with PBS was used as a negative control. OX1R immunostaining was evaluated by two investigators (TV and AC) by calculating a score (0-300) obtained by multiplying the intensity (negative, 0; weak, 1; moderate, 2; and strong, 3) by the percentage of stained cells. The pattern of expression (cytoplasmic, membranous, and nuclear) was also recorded, and a mean score was calculated for each tumor. Internal positive controls consisted of normal pancreatic islets while the HEK/hOX1R cell line served as an external positive control. Specificity of the immunostaining was verified by incubation of OX1R antibody with its homologous immunogenic peptide or omission of the primary antibody. Apoptosis determination was performed in tumor cell lines (AsPC-1, HPAF-II and HPAF-II/hOX1R) and resected xenografts, treated or not with orexin-A. Three μm cell sections were immunolabelled for activated caspase-3 after antigen retrieval (ABGENT; cleaved caspase 3; polyclonal rabbit; 1/100) using a detection kit (Bond Polymer Refine detection; DS9800; Leica Microsystems). Substitution of the primary antibody with PBS was used as a negative control. External positive controls consisted of normal lymph nodes. Cleaved caspase-3 immunostaining was determined by calculating the percentage of tumor cells stained in 10 fields of xenografted tumor cells, each field comprising 500 tumor cells.

Substance: orexin-A: 33 amino acid hypothalamic neuropeptide, OX1R agonist, SEQ ID NO:2; peptide from GL Biochemicals
- decrease in tumor volume as compared to untreated mice (1 μmol/kg daily i.p. beginning the day cells were xenografted): 48.8%
- volume of established tumors (1 μmol/kg daily, started 14 days after cell inoculation): rapidly and strongly reduced
- weight of tumors, treatment from day 0 versus from day 14 (1 μmol/kg daily, tumors resected after sacrifice): No differences
- tumoral cell death (Hemalum Eosin Safran staining) (1 μmoles/Kg orexin-A daily i.p.): induced tumoral cell death
- decrease of tumor volume (0.01 moles orexin-A/kg (so in the source)): 34.4%
- decrease of tumor volume (0.1 moles orexin-A/kg (so in the source)): 30.6%
- decrease of tumor volume (1 moles orexin-A/kg (so in the source)): 46.7%
- decrease of tumor volume (10 moles orexin-A/kg (so in the source)): 52.8%
- decline of tumor progression (Example 1, Orexin-A injection): 49%
- activated caspase-3 immunostaining in xenografted AsPC-1 tumors: intense staining
- activated caspase-3 immunostaining in xenografted AsPC-1 tumors (listed as Orexin-A): strong immunostaining; also recorded: Induction of apoptosis was observed

— patent US20150140015A1, “METHODS AND PHARMACEUTICAL COMPOSITIONS FOR THE TREATMENT OF PANCREATIC CANCER” (INSERM (Institut National de la Sante et de la Recherche …, priority 2013, published 2015)
